Measured values published in ChEMBL document CHEMBL1649508, “Emergence of quinolone-resistant Bordetella pertussis in Japan” (2009).
Values after ≈ are worked out from the molar mass of the structure shown.

Each compound was assayed on Bordetella pertussis (assay: Antibacterial activity against quinolone-susceptible Bordetella pertussis BP128 by Etest method).
Assay type: functional

In order of falling MIC:
1. CCn1cc(C(=O)O)c(=O)c2ccc(C)nc21 [NALIDIXIC ACID]  1 µg/mL (≈ 4.31 µM)
2. CCn1cc(C(=O)O)c(=O)c2cc(F)c(N3CCNCC3)cc21 [NORFLOXACIN]  0.064 µg/mL (≈ 0.2 µM)

The compounds below were run on Bordetella pertussis (assay: Antibacterial activity against […] Bordetella pertussis BP122 by Etest method in presence of efflux pump inhibitor phenyl-arginine-beta-naphthylamide).
Assay type: functional

With CCn1cc(C(=O)O)c(=O)c2ccc(C)nc21 [NALIDIXIC ACID] the MIC was 32 µg/mL.

These compounds were tested on Bordetella pertussis (assay: Antibacterial activity against quinolone-susceptible Bordetella pertussis BP109 by Etest method).
Assay type: functional

In order of falling MIC:
1. CCn1cc(C(=O)O)c(=O)c2ccc(C)nc21 [NALIDIXIC ACID]  2 µg/mL (≈ 8.61 µM)
2. CCn1cc(C(=O)O)c(=O)c2cc(F)c(N3CCNCC3)cc21 [NORFLOXACIN]  0.064 µg/mL (≈ 0.2 µM)

Each compound was assayed on Bordetella pertussis (assay: Antibacterial activity against quinolone-susceptible Bordetella pertussis BP113 by Etest method in presence of efflux pump inhibitor phenyl-arginine-beta-naphthylamide).
Assay type: functional

Compound CCn1cc(C(=O)O)c(=O)c2ccc(C)nc21 [NALIDIXIC ACID] has an MIC of 0.25 µg/mL.

The compounds below were run on Bordetella pertussis (assay: Antibacterial activity against quinolone-susceptible Bordetella pertussis BP115 by Etest method).
Assay type: functional

In order of falling MIC:
1. CCn1cc(C(=O)O)c(=O)c2ccc(C)nc21 [NALIDIXIC ACID]  1 µg/mL (≈ 4.31 µM)
2. CCn1cc(C(=O)O)c(=O)c2cc(F)c(N3CCNCC3)cc21 [NORFLOXACIN]  0.064 µg/mL (≈ 0.2 µM)

These compounds were tested on Bordetella pertussis (assay: Antibacterial activity against quinolone-susceptible Bordetella pertussis BP111 by Etest method).
Assay type: functional

In order of rising MIC:
1. CCn1cc(C(=O)O)c(=O)c2cc(F)c(N3CCNCC3)cc21 [NORFLOXACIN]  0.064 µg/mL (≈ 0.2 µM)
2. CCn1cc(C(=O)O)c(=O)c2ccc(C)nc21 [NALIDIXIC ACID]  2 µg/mL (≈ 8.61 µM)

These compounds were tested on Bordetella pertussis (assay: Antibacterial activity against […] Bordetella pertussis BP118 by Etest method).
Assay type: functional

Going from CCn1cc(C(=O)O)c(=O)c2ccc(C)nc21 [NALIDIXIC ACID] to CCn1cc(C(=O)O)c(=O)c2cc(F)c(N3CCNCC3)cc21 [NORFLOXACIN], the MIC falls from > 256 µg/mL to 0.5 µg/mL (≈ 1.57 µM).

What follows are compounds tested on Bordetella pertussis (assay: Antibacterial activity against quinolone-susceptible Bordetella pertussis BP106 by Etest method).
Assay type: functional

In order of rising MIC:
1. CCn1cc(C(=O)O)c(=O)c2cc(F)c(N3CCNCC3)cc21 [NORFLOXACIN]  0.064 µg/mL (≈ 0.2 µM)
2. CCn1cc(C(=O)O)c(=O)c2ccc(C)nc21 [NALIDIXIC ACID]  1 µg/mL (≈ 4.31 µM)

These compounds were tested on Bordetella pertussis (assay: Antibacterial activity against quinolone-susceptible Bordetella pertussis BP101 by Etest method).
Assay type: functional

In order of rising MIC:
1. CCn1cc(C(=O)O)c(=O)c2cc(F)c(N3CCNCC3)cc21 [NORFLOXACIN]  0.032 µg/mL (≈ 0.1 µM)
2. CCn1cc(C(=O)O)c(=O)c2ccc(C)nc21 [NALIDIXIC ACID]  2 µg/mL (≈ 8.61 µM)

These compounds were tested on Bordetella pertussis (assay: Antibacterial activity against quinolone-susceptible Bordetella pertussis BP112 by Etest method).
Assay type: functional

In order of falling MIC:
1. CCn1cc(C(=O)O)c(=O)c2ccc(C)nc21 [NALIDIXIC ACID]  1 µg/mL (≈ 4.31 µM)
2. CCn1cc(C(=O)O)c(=O)c2cc(F)c(N3CCNCC3)cc21 [NORFLOXACIN]  0.064 µg/mL (≈ 0.2 µM)

These compounds were tested on Bordetella pertussis (assay: Antibacterial activity against […] Bordetella pertussis BP58 by Etest method).
Assay type: functional

Compared with CCn1cc(C(=O)O)c(=O)c2ccc(C)nc21 [NALIDIXIC ACID], CCn1cc(C(=O)O)c(=O)c2cc(F)c(N3CCNCC3)cc21 [NORFLOXACIN] is lower in MIC: > 256 µg/mL for the first, 1 µg/mL (≈ 3.13 µM) for the second.

These compounds were tested on Bordetella pertussis (assay: Antibacterial activity against […] Bordetella pertussis BP121 by Etest method).
Assay type: functional

First: CCn1cc(C(=O)O)c(=O)c2ccc(C)nc21 [NALIDIXIC ACID]
Second: CCn1cc(C(=O)O)c(=O)c2cc(F)c(N3CCNCC3)cc21 [NORFLOXACIN]
The MIC of the first is higher: > 256 µg/mL for the first, 1 µg/mL (≈ 3.13 µM) for the second.

These compounds were tested on Bordetella pertussis (assay: Antibacterial activity against […] Bordetella pertussis BP99 by Etest method in presence of efflux pump inhibitor phenyl-arginine-beta-naphthylamide).
Assay type: functional

For CCn1cc(C(=O)O)c(=O)c2ccc(C)nc21 [NALIDIXIC ACID], the MIC was 32 µg/mL.

These compounds were tested on Bordetella pertussis (assay: Antibacterial activity against […] Bordetella pertussis BP118 by Etest method in presence of efflux pump inhibitor phenyl-arginine-beta-naphthylamide).
Assay type: functional

In the case of CCn1cc(C(=O)O)c(=O)c2ccc(C)nc21 [NALIDIXIC ACID], the MIC is reported as 64 µg/mL.

What follows are compounds tested on Bordetella pertussis (assay: Antibacterial activity against […] Bordetella pertussis BP117 by Etest method).
Assay type: functional

First: CCn1cc(C(=O)O)c(=O)c2ccc(C)nc21 [NALIDIXIC ACID]
Second: CCn1cc(C(=O)O)c(=O)c2cc(F)c(N3CCNCC3)cc21 [NORFLOXACIN]
The MIC of the first is higher: > 256 µg/mL for the first, 0.5 µg/mL (≈ 1.57 µM) for the second.

What follows are compounds tested on Bordetella pertussis (assay: Antibacterial activity against quinolone-susceptible Bordetella pertussis CCUG 30837 by Etest method in presence of efflux pump inhibitor phenyl-arginine-beta-naphthylamide).
Assay type: functional

In the case of CCn1cc(C(=O)O)c(=O)c2ccc(C)nc21 [NALIDIXIC ACID], the MIC is reported as 0.25 µg/mL.

These compounds were tested on Bordetella pertussis (assay: Antibacterial activity against quinolone-susceptible Bordetella pertussis BP113 by Etest method).
Assay type: functional

In order of falling MIC:
1. CCn1cc(C(=O)O)c(=O)c2ccc(C)nc21 [NALIDIXIC ACID]  2 µg/mL (≈ 8.61 µM)
2. CCn1cc(C(=O)O)c(=O)c2cc(F)c(N3CCNCC3)cc21 [NORFLOXACIN]  0.064 µg/mL (≈ 0.2 µM)

Each compound was assayed on Bordetella pertussis (assay: Antibacterial activity against quinolone-susceptible Bordetella pertussis CCUG 30837 by Etest method).
Assay type: functional

In order of falling MIC:
1. CCn1cc(C(=O)O)c(=O)c2ccc(C)nc21 [NALIDIXIC ACID]  2 µg/mL (≈ 8.61 µM)
2. CCn1cc(C(=O)O)c(=O)c2cc(F)c(N3CCNCC3)cc21 [NORFLOXACIN]  0.125 µg/mL (≈ 0.391 µM)

What follows are compounds tested on Bordetella pertussis (assay: Antibacterial activity against […] Bordetella pertussis BP117 by Etest method in presence of efflux pump inhibitor phenyl-arginine-beta-naphthylamide).
Assay type: functional

Compound CCn1cc(C(=O)O)c(=O)c2ccc(C)nc21 [NALIDIXIC ACID] has an MIC of 64 µg/mL.

Each compound was assayed on Bordetella pertussis (assay: Antibacterial activity against […] Bordetella pertussis BP58 by Etest method in presence of efflux pump inhibitor phenyl-arginine-beta-naphthylamide).
Assay type: functional

For CCn1cc(C(=O)O)c(=O)c2ccc(C)nc21 [NALIDIXIC ACID], the MIC was 64 µg/mL.

What follows are compounds tested on Bordetella pertussis (assay: Antibacterial activity against […] Bordetella pertussis BP121 by Etest method in presence of efflux pump inhibitor phenyl-arginine-beta-naphthylamide).
Assay type: functional

With CCn1cc(C(=O)O)c(=O)c2ccc(C)nc21 [NALIDIXIC ACID] the MIC was 32 µg/mL.

Each compound was assayed on Bordetella pertussis (assay: Antibacterial activity against […] Bordetella pertussis BP99 by Etest method).
Assay type: functional

Compared with CCn1cc(C(=O)O)c(=O)c2ccc(C)nc21 [NALIDIXIC ACID], CCn1cc(C(=O)O)c(=O)c2cc(F)c(N3CCNCC3)cc21 [NORFLOXACIN] is lower in MIC: > 256 µg/mL for the first, 1 µg/mL (≈ 3.13 µM) for the second.

The compounds below were run on Bordetella pertussis (assay: Antibacterial activity against […] Bordetella pertussis BP122 by Etest method).
Assay type: functional

Going from CCn1cc(C(=O)O)c(=O)c2ccc(C)nc21 [NALIDIXIC ACID] to CCn1cc(C(=O)O)c(=O)c2cc(F)c(N3CCNCC3)cc21 [NORFLOXACIN], the MIC falls from > 256 µg/mL to 1 µg/mL (≈ 3.13 µM).
